Results: paper PMC5218480 (PLoS ONE, 2017)

System: MV-4-11 cells
Assay: Gene expression microarray analysis (Affymetrix PrimeView) and GSEA
Format: cell-based, human
Design: RFU PODN (11730768_x_at) / Fold change /veh PODN (11730768_x_at) / RFU LINC00158 (11744669_a_at) / Fold change /veh LINC00158 (11744669_a_at) / RFU DUSP10 (11751237_a_at) / Fold change /veh DUSP10 (11751237_a_at) / RFU ID3 (11757404_x_at) / Fold change /veh ID3 (11757404_x_at) / RFU PLEKHG5 (11737974_s_at) / Fold change /veh PLEKHG5 (11737974_s_at) / RFU LRRC4B (11730491_at) / Fold change /veh LRRC4B (11730491_at) / RFU GIMAP4 (11747438_a_at) / Fold change /veh GIMAP4 (11747438_a_at) / RFU KRT8 (11758183_x_at) / Fold change /veh KRT8 (11758183_x_at) / RFU CNN1 (11734310_a_at) / Fold change /veh CNN1 (11734310_a_at) / RFU VPS37D (11726825_at) / Fold change /veh VPS37D (11726825_at) / RFU C10orf10 (11716522_x_at) / Fold change /veh C10orf10 (11716522_x_at) / RFU KIR2DL2 /// KIR2DL4 /// KIR2DL5A /// KIR2DL5B /// KIR2DS1 /// KIR2DS2 /// KIR2DS3 /// KIR2DS4 /// KIR3DL3 /// KIR3DL3 /// KIR3DS1 (11738374_at) / Fold change /veh KIR2DL2 /// KIR2DL4 /// KIR2DL5A /// KIR2DL5B /// KIR2DS1 /// KIR2DS2 /// KIR2DS3 /// KIR2DS4 /// KIR3DL3 /// KIR3DL3 /// KIR3DS1 (11738374_at) / RFU C1QL1 (11718748_at) / Fold change /veh C1QL1 (11718748_at) / RFU TMPRSS4 (11747572_a_at) / Fold change /veh TMPRSS4 (11747572_a_at) / RFU HAMP (11756126_x_at) / Fold change /veh HAMP (11756126_x_at) / RFU RNFT2 (11725882_a_at) / Fold change /veh RNFT2 (11725882_a_at) / RFU NR4A2 (11747474_a_at) / Fold change /veh NR4A2 (11747474_a_at) / RFU ABCC12 (11746883_a_at) / Fold change /veh ABCC12 (11746883_a_at) / RFU TMEM136 (11760407_x_at) / Fold change /veh TMEM136 (11760407_x_at) / RFU CLDN22 /// WWC2 (11732394_at) / Fold change /veh CLDN22 /// WWC2 (11732394_at) / RFU HLA-DPB1 (11760878_x_at) / Fold change /veh HLA-DPB1 (11760878_x_at) / RFU SPINT1 (11716480_a_at) / Fold change /veh SPINT1 (11716480_a_at) / RFU GAP43 (11754022_s_at) / Fold change /veh GAP43 (11754022_s_at) / RFU A4GNT (11735810_at) / Fold change /veh A4GNT (11735810_at) / RFU PRB3 (11715151_x_at) / Fold change /veh PRB3 (11715151_x_at) / RFU TUBB4B (11761932_at) / Fold change /veh TUBB4B (11761932_at) / RFU CAPN14 (11732068_a_at) / Fold change /veh CAPN14 (11732068_a_at) / RFU TMCC2 (11721928_a_at) / Fold change /veh TMCC2 (11721928_a_at) / RFU IRGQ (11745062_a_at) / Fold change /veh IRGQ (11745062_a_at) / RFU FAM174B (11720279_a_at) / Fold change /veh FAM174B (11720279_a_at) / RFU TMPRSS4 (11748680_a_at) / Fold change /veh TMPRSS4 (11748680_a_at) / RFU FAM212B (11763350_a_at) / Fold change /veh FAM212B (11763350_a_at) / RFU PLEKHG5 (11743358_a_at) / Fold change /veh PLEKHG5 (11743358_a_at) / RFU ZSCAN30 (11745921_a_at) / Fold change /veh ZSCAN30 (11745921_a_at) / RFU CMKLR1 (11741424_a_at) / Fold change /veh CMKLR1 (11741424_a_at) / RFU LOC101060620 /// MAPK8IP1 (11723275_at) / Fold change /veh LOC101060620 /// MAPK8IP1 (11723275_at) / RFU SPTSSB (11747773_x_at) / Fold change /veh SPTSSB (11747773_x_at) / RFU PRSS12 (11739890_at) / Fold change /veh PRSS12 (11739890_at) / RFU BIN1 (11741810_x_at) / Fold change /veh BIN1 (11741810_x_at) / RFU WNT11 (11732464_a_at) / Fold change /veh WNT11 (11732464_a_at) / RFU C10orf10 (11716521_a_at) / Fold change /veh C10orf10 (11716521_a_at) / RFU C5orf56 (11738089_at) / Fold change /veh C5orf56 (11738089_at) / RFU CYB561 (11721691_x_at) / Fold change /veh CYB561 (11721691_x_at) / RFU ANKRD19P (11752326_a_at) / Fold change /veh ANKRD19P (11752326_a_at) / RFU OR2T12 /// OR2T33 /// OR2T8 (11738714_s_at) / Fold change /veh OR2T12 /// OR2T33 /// OR2T8 (11738714_s_at) / RFU VCAN (11748164_a_at) / Fold change /veh VCAN (11748164_a_at) / RFU JSRP1 (11732532_at) / Fold change /veh JSRP1 (11732532_at) / RFU KRTAP10-11 (11738290_x_at) / Fold change /veh KRTAP10-11 (11738290_x_at) / RFU MYO3A (11730013_a_at) / Fold change /veh MYO3A (11730013_a_at) / RFU EBF3 (11725865_a_at) / Fold change /veh EBF3 (11725865_a_at) / RFU CAMK2N1 (11719241_x_at) / Fold change /veh CAMK2N1 (11719241_x_at) / RFU C5orf56 (11738088_a_at) / Fold change /veh C5orf56 (11738088_a_at) / RFU OLFML3 (11715873_a_at) / Fold change /veh OLFML3 (11715873_a_at) / RFU LOC100653217 /// NTM (11731650_a_at) / Fold change /veh LOC100653217 /// NTM (11731650_a_at) / RFU MAPK11 (11762145_a_at) / Fold change /veh MAPK11 (11762145_a_at) / RFU FIZ1 (11724087_x_at) / Fold change /veh FIZ1 (11724087_x_at) / RFU OASL (11726364_x_at) / Fold change /veh OASL (11726364_x_at) / RFU SOX15 (11748057_x_at) / Fold change /veh SOX15 (11748057_x_at) / RFU CD79A (11719716_a_at) / Fold change /veh CD79A (11719716_a_at) / RFU HIST1H1D (11736915_at) / Fold change /veh HIST1H1D (11736915_at) / RFU CASKIN2 (11723855_a_at) / Fold change /veh CASKIN2 (11723855_a_at) / RFU LOC730098 (11760151_x_at) / Fold change /veh LOC730098 (11760151_x_at) / RFU OR4N2 (11742367_at) / Fold change /veh OR4N2 (11742367_at) / RFU PRRT2 (11749266_a_at) / Fold change /veh PRRT2 (11749266_a_at) / RFU SNX32 (11753110_a_at) / Fold change /veh SNX32 (11753110_a_at) / RFU CDHR5 (11726645_a_at) / Fold change /veh CDHR5 (11726645_a_at) / RFU RCAN1 (11760418_a_at) / Fold change /veh RCAN1 (11760418_a_at) / RFU FAM167A (11723789_a_at) / Fold change /veh FAM167A (11723789_a_at) / RFU FAM26E (11764081_at) / Fold change /veh FAM26E (11764081_at) / RFU ISYNA1 (11749810_s_at) / Fold change /veh ISYNA1 (11749810_s_at) / RFU ACY1 (11761880_at) / Fold change /veh ACY1 (11761880_at) / RFU 11764098_at / Fold change /veh 11764098_at / RFU SAMD14 (11745864_x_at) / Fold change /veh SAMD14 (11745864_x_at) / RFU NPB (11741838_a_at) / Fold change /veh NPB (11741838_a_at) / RFU TMPRSS6 (11731388_a_at) / Fold change /veh TMPRSS6 (11731388_a_at) / RFU KRTAP10-2 (11738614_at) / Fold change /veh KRTAP10-2 (11738614_at) / RFU ARHGAP8 /// PRR5-ARHGAP8 (11727945_x_at) / Fold change /veh ARHGAP8 /// PRR5-ARHGAP8 (11727945_x_at) / RFU KRTAP5-7 /// NADSYN1 (11734609_at) / Fold change /veh KRTAP5-7 /// NADSYN1 (11734609_at) / RFU RASL12 (11751679_a_at) / Fold change /veh RASL12 (11751679_a_at) / RFU CDKN2B (11736163_a_at) / Fold change /veh CDKN2B (11736163_a_at) / RFU PRF1 (11729649_at) / Fold change /veh PRF1 (11729649_at) / RFU, ZNF638 /// ZNF638-IT1 / Fold change vs veh, ZNF638 /// ZNF638-IT1 / RFU, PANK3 / Fold change vs veh, PANK3 / RFU, SH3YL1 / Fold change vs veh, SH3YL1 / RFU, ZEB2 / Fold change vs veh, ZEB2 / RFU, NRIP1 / Fold change vs veh, NRIP1 / RFU, PTTG1IP / Fold change vs veh, PTTG1IP / RFU, CAPN2 / Fold change vs veh, CAPN2 / RFU, MED14 / Fold change vs veh, MED14 / RFU, SNORA58 / Fold change vs veh, SNORA58 / RFU, C1orf63 / Fold change vs veh, C1orf63 / RFU, LRRFIP1 / Fold change vs veh, LRRFIP1 / RFU, NDUFAF7 / Fold change vs veh, NDUFAF7 / RFU, SLC12A2 / Fold change vs veh, SLC12A2 / RFU, IBTK / Fold change vs veh, IBTK / RFU, ESF1 / Fold change vs veh, ESF1 / Fold change vs veh, TMEM50B / RFU, TAOK1 / Fold change vs veh, TAOK1 / RFU, ACBD3 / Fold change vs veh, ACBD3 / RFU, TMA16 / Fold change vs veh, TMA16 / RFU, RWDD3 / Fold change vs veh, RWDD3 / RFU, BCAT1 / Fold change vs veh, BCAT1 / RFU, EDEM3 / Fold change vs veh, EDEM3 / RFU, TMEM33 / Fold change vs veh, TMEM33 / RFU, WDR75 / Fold change vs veh, WDR75 / RFU, AHCTF1 / Fold change vs veh, AHCTF1 / RFU, TFRC / Fold change vs veh, TFRC / RFU, ZDHHC17 / Fold change vs veh, ZDHHC17 / RFU, NOM1 / Fold change vs veh, NOM1 / RFU, ARL8B / Fold change vs veh, ARL8B / RFU, ZBTB11 / Fold change vs veh, ZBTB11 / RFU, TAMM41 / Fold change vs veh, TAMM41 / RFU, KIAA1704 /// LOC100996395 / Fold change vs veh, KIAA1704 /// LOC100996395 / RFU, ING1 / Fold change vs veh, ING1 / RFU, TRMT61B / Fold change vs veh, TRMT61B / RFU, FUBP3 / Fold change vs veh, FUBP3 / RFU, TP53 / Fold change vs veh, TP53 / RFU, TNKS2 / Fold change vs veh, TNKS2 / RFU, ZFP14 / Fold change vs veh, ZFP14 / RFU, ACTR2 / Fold change vs veh, ACTR2 / RFU, PPP3R1 / Fold change vs veh, PPP3R1 / RFU, PIK3R1 / Fold change vs veh, PIK3R1 / RFU, HNRNPA1 / Fold change vs veh, HNRNPA1 / RFU, RNF170 / Fold change vs veh, RNF170 / RFU, ZNF28 / Fold change vs veh, ZNF28 / RFU, RNGTT / Fold change vs veh, RNGTT / RFU, OGT / Fold change vs veh, OGT / RFU, BRD1 / Fold change vs veh, BRD1 / RFU, MARS / Fold change vs veh, MARS / RFU, ZNF655 / Fold change vs veh, ZNF655 / RFU, FAHD1 / Fold change vs veh, FAHD1 / RFU, BDP1 / Fold change vs veh, BDP1 / RFU, LRRCC1 / Fold change vs veh, LRRCC1 / RFU, ARID1A / Fold change vs veh, ARID1A / RFU, ZNF146 / Fold change vs veh, ZNF146 / RFU, ZNF330 / Fold change vs veh, ZNF330 / RFU, GPN3 / Fold change vs veh, GPN3 / RFU, C9orf123 / Fold change vs veh, C9orf123 / RFU, N4BP2L2 / Fold change vs veh, N4BP2L2 / RFU, ARFIP1 / Fold change vs veh, ARFIP1 / RFU, FAM179B / Fold change vs veh, FAM179B / RFU, BCL10 / Fold change vs veh, BCL10 / RFU, UHRF1BP1L / Fold change vs veh, UHRF1BP1L / RFU, BET1 / Fold change vs veh, BET1 / RFU, CNOT2 / Fold change vs veh, CNOT2 / RFU, ZNF268 / Fold change vs veh, ZNF268 / Fold change vs veh, ZNF507 / RFU, DGCR2 / Fold change vs veh, DGCR2 / RFU, WDSUB1 / Fold change vs veh, WDSUB1 / Fold change vs veh, HSP90B1 /// MIR3652 / RFU, ADSS / Fold change vs veh, ADSS / RFU, GK / Fold change vs veh, GK / RFU, ZNF148 / Fold change vs veh, ZNF148 / RFU, TAF9 / Fold change vs veh, TAF9 / RFU, SLC1A5 / Fold change vs veh, SLC1A5 / RFU, SLMO2 / Fold change vs veh, SLMO2 / RFU, ABCC4 / Fold change vs veh, ABCC4 / RFU, LOC101060439 /// RAP1B / Fold change vs veh, LOC101060439 /// RAP1B / RFU, RFX7 / Fold change vs veh, RFX7 / RFU, GTPBP10 / Fold change vs veh, GTPBP10 / RFU, CNEP1R1 / Fold change vs veh, CNEP1R1 / RFU, BIVM-ERCC5 /// ERCC5 / Fold change vs veh, BIVM-ERCC5 /// ERCC5 / RFU, ILF3 / Fold change vs veh, ILF3 / RFU 11762660_at / Fold change /veh 11762660_at / RFU VCAN (11757783_s_at) / Fold change /veh VCAN (11757783_s_at) / RFU DDX43 (11728927_at) / Fold change /veh DDX43 (11728927_at) / RFU KRT8 (11758188_x_at) / Fold change /veh KRT8 (11758188_x_at) / RFU NKD1 (11759106_at) / Fold change /veh NKD1 (11759106_at) / RFU SRD5A1 (11742802_a_at) / Fold change /veh SRD5A1 (11742802_a_at) / RFU TPSAB1 /// TPSB2 (11721975_s_at) / Fold change /veh TPSAB1 /// TPSB2 (11721975_s_at) / RFU GSTM3 (11746129_a_at) / Fold change /veh GSTM3 (11746129_a_at) / RFU IL23R (11737362_x_at) / Fold change /veh IL23R (11737362_x_at) / RFU TMEM51 (11727254_a_at) / Fold change /veh TMEM51 (11727254_a_at) / RFU PIWIL2 (11732686_x_at) / Fold change /veh PIWIL2 (11732686_x_at) / RFU ORM1 (11744905_x_at) / Fold change /veh ORM1 (11744905_x_at) / RFU CCDC152 (11743942_at) / Fold change /veh CCDC152 (11743942_at) / RFU ECM1 (11717891_a_at) / Fold change /veh ECM1 (11717891_a_at) / RFU IL23R (11748794_a_at) / Fold change /veh IL23R (11748794_a_at) / RFU TNFAIP8L3 (11732012_x_at) / Fold change /veh TNFAIP8L3 (11732012_x_at) / RFU MBOAT4 (11741988_at) / Fold change /veh MBOAT4 (11741988_at) / RFU 11764193_at / Fold change /veh 11764193_at / RFU TMEM53 (11763286_at) / Fold change /veh TMEM53 (11763286_at) / RFU MAGEB2 (11727129_at) / Fold change /veh MAGEB2 (11727129_at) / RFU TMEM200A (11744735_a_at) / Fold change /veh TMEM200A (11744735_a_at) / RFU CCDC152 (11751479_a_at) / Fold change /veh CCDC152 (11751479_a_at) / RFU FAM211A (11726209_a_at) / Fold change /veh FAM211A (11726209_a_at) / RFU RGS16 (11746705_a_at) / Fold change /veh RGS16 (11746705_a_at) / RFU VCAN (11755009_s_at) / Fold change /veh VCAN (11755009_s_at) / RFU RHOB (11743442_s_at) / Fold change /veh RHOB (11743442_s_at) / RFU RGS16 (11720943_a_at) / Fold change /veh RGS16 (11720943_a_at) / RFU RGS16 (11720944_at) / Fold change /veh RGS16 (11720944_at) / RFU, VPS4B / Fold change vs veh, VPS4B / RFU, CREB1 / Fold change vs veh, CREB1 / RFU, DNAJC13 / Fold change vs veh, DNAJC13 / RFU, GNAQ / Fold change vs veh, GNAQ / RFU, CDK5R1 / Fold change vs veh, CDK5R1 / RFU, ZRANB3 / Fold change vs veh, ZRANB3 / RFU, CUL4A / Fold change vs veh, CUL4A / RFU, CCNY / Fold change vs veh, CCNY / RFU, UFL1 / Fold change vs veh, UFL1 / RFU, COG3 / Fold change vs veh, COG3 / RFU, DIAPH2 / Fold change vs veh, DIAPH2 / RFU, SKA2 / Fold change vs veh, SKA2 / RFU, AFF3 / Fold change vs veh, AFF3 / RFU, LMF1 / Fold change vs veh, LMF1 / RFU, IPO11 / Fold change vs veh, IPO11 / RFU, DFFB / Fold change vs veh, DFFB / RFU, FOXP1 / Fold change vs veh, FOXP1 / RFU, CARD8 / Fold change vs veh, CARD8 / RFU, STRN3 / Fold change vs veh, STRN3 / RFU, ADK / Fold change vs veh, ADK / RFU, RASSF2 / Fold change vs veh, RASSF2 / RFU, WIPF1 / Fold change vs veh, WIPF1 / RFU, LARP1B / Fold change vs veh, LARP1B / RFU, RASA1 / Fold change vs veh, RASA1 / RFU, RB1 / Fold change vs veh, RB1 / RFU, PPFIA1 / Fold change vs veh, PPFIA1 / RFU, MAT2A / Fold change vs veh, MAT2A / RFU, CCT5 / Fold change vs veh, CCT5 / RFU, WDR92 / Fold change vs veh, WDR92 / RFU, CUX1 / Fold change vs veh, CUX1 / RFU, TTC7A / Fold change vs veh, TTC7A / RFU, TMEM135 / Fold change vs veh, TMEM135 / RFU, DEPTOR / Fold change vs veh, DEPTOR / RFU, CPM / Fold change vs veh, CPM / RFU, DNAJB6 / Fold change vs veh, DNAJB6 / RFU, CACNA2D3 / Fold change vs veh, CACNA2D3 / RFU, DTX4 / Fold change vs veh, DTX4 / RFU, TFCP2 / Fold change vs veh, TFCP2 / RFU, GMCL1 /// GMCL1P1 / Fold change vs veh, GMCL1 /// GMCL1P1 / RFU, AEBP2 / Fold change vs veh, AEBP2 / RFU, SNHG1 /// SNORD22 /// SNORD25 /// SNORD26 /// SNORD27 /// SNORD28 /// SNORD29 /// SNORD31 / Fold change vs veh, SNHG1 /// SNORD22 /// SNORD25 /// SNORD26 /// SNORD27 /// SNORD28 /// SNORD29 /// SNORD31 / Fold change (Aza/veh), C12orf56 (ProbeSet 11735607_a_at) / Fold change (ACY-1035/veh), C12orf56 (ProbeSet 11735607_a_at) / Fold change (Aza/veh), FGFR1OP (ProbeSet 11751329_s_at) / Fold change (ACY-1035/veh), FGFR1OP (ProbeSet 11751329_s_at) / Fold change (Aza/veh), VPS36 (ProbeSet 11739960_a_at) / Fold change (ACY-1035/veh), VPS36 (ProbeSet 11739960_a_at) / RFU SYPL1 (11715823_x_at) / Fold change /veh SYPL1 (11715823_x_at) / RFU IGFBP7 (11715501_s_at) / Fold change /veh IGFBP7 (11715501_s_at) / RFU REEP3 (11722064_at) / Fold change /veh REEP3 (11722064_at) / RFU IGLL1 (11728026_x_at) / Fold change /veh IGLL1 (11728026_x_at): dose or concentration left out as unconfirmed
Conditions: ProbeSet 11741123_x_at; LIST D

SMILES: Nc1ncn([C@@H]2O[C@H](CO)[C@@H](O)[C@H]2O)c(=O)n1 [azacitidine]
- RFU, ADK: 188.85 RFU
